From publication PMC10721329, “Quisinostat is a brain-penetrant radiosensitizer in glioblastoma” (JCI Insight, 2023)
Values joined by “and” are separate entries in the source; they are usually repeats but may differ in a detail not shown here. Equal values may be shown once.

Test system: orthotopic GB126 tumors
Assay: Bioluminescence imaging of tumor burden, orthotopic GB126 PDX
Assay type: in vivo, athymic nude mice
Details: individual mice
Description: We additionally questioned whether QST, either alone or in combination with IR, could extend the survival of tumor-bearing mice. In this study, mice received the same treatments described above, but after completion of the 1-week IR regimen, mice continued to receive QST at 10 mg/kg or vehicle solution on MWF until study completion, as determined by large tumor burden and onset of neurological symptoms (Figure 8A). […] Although QST monotherapy slowed tumor growth, median survival for the QST-treated mice was only 4 days longer than for the vehicle-treated mice (P < 0.01), and IR alone increased median survival by 17 days (P < 0.001; Figure 8D). However, combining QST with IR led to a significant increase in median survival (37 days, P < 0.001) compared with the vehicle (Figure 8D). […]
Rad225XL irradiator (Precision X -Ray). […]
Live Bioluminescence Imaging
Two weeks after implantation, mice were examined for tumor growth by monitoring bioluminescence every 7 days using the IVIS Xenogen Spectrum platform. D -Luciferin Potassium Salt (Gold Biotechnology) was dissolved in PBS at a final concentration of 15 mg/mL. All mice were weighed each week and administered D -Luciferin via an intraperitoneal injection (10 μl/g). Fifteen minutes after injection, the mice were sedated using gaseous isoflurane (Piramal) and placed inside an IVIS Spectrum in vivo imaging system (Perkin Elmer) […]
for bioluminescence imaging. The total flux (photons/second) within the region of interest was calculated using the Living Image software 4.5 (Perkin Elmer).
Preparation of QST for In Vivo Use
For in vivo preparation, QST was dissolved in 50% polyethylene glycol (PEG) 300, 50% sterile water solution for 10 mg/kg dosing. The suspension was then sonicated for 10 minutes to allow the drug to completely dissolve. Finally, the pH of both the drug and the vehicle solutions was adjusted to 7.4 before intraperitoneal dosing. […]
In Vivo Irradiation Studies
Intracranial or flank tumor–bearing nude mice were sedated with gaseous isoflurane before
IR. On the first week of treatment, 2 hours after treatment with QST or vehicle, the mice were […]

In the case of Cn1cc(CNCC2CCN(c3ncc(C(=O)NO)cn3)CC2)c2ccccc21 [QST, quisinostat], the “IVIS imaging, bioluminescence” value (Qstat 10 mg/kg + IR 6 Gy, day 0 post Tx start (baseline)) is reported as 75600000 photons/seconds and 79700000 photons/seconds and 125000000 photons/seconds and 47900000 photons/seconds and 137000000 photons/seconds and 47600000 photons/seconds and 28100000 photons/seconds and 33000000 photons/seconds and 18800000 photons/seconds and 23200000 photons/seconds, the “IVIS imaging, bioluminescence” value (Qstat 10 mg/kg + IR 6 Gy, day 8 post Tx start) is reported as 37000000 photons/seconds and 56500000 photons/seconds and 14000000 photons/seconds and 16000000 photons/seconds and 118000000 photons/seconds and 67200000 photons/seconds and 5460000 photons/seconds and 2880000 photons/seconds and 542000 photons/seconds and 178000000 photons/seconds and the “IVIS imaging, bioluminescence” value (Qstat 10 mg/kg + IR 6 Gy, day 29 post Tx start) is reported as 111000000 photons/seconds and 75900000 photons/seconds and 60800000 photons/seconds and 55400000 photons/seconds and 150000000 photons/seconds and 22000000 photons/seconds and 8210000 photons/seconds and 10600000 photons/seconds and 10200000 photons/seconds and 15700000 photons/seconds. The “IVIS imaging, bioluminescence” value (Qstat 10 mg/kg + IR 6 Gy, day 36 post Tx start) was 9000000 photons/seconds and 4380000 photons/seconds and 371000000 photons/seconds and 40800000 photons/seconds and 426000000 photons/seconds and 6690000 photons/seconds and 51000000 photons/seconds and 114000000 photons/seconds and 111000000 photons/seconds, the “IVIS imaging, bioluminescence” value (Qstat 10 mg/kg + IR 6 Gy, day 43 post Tx start) was 943000000 photons/seconds and 1020000000 photons/seconds and 359000000 photons/seconds and 413000000 photons/seconds and 832000000 photons/seconds and 252000000 photons/seconds (2×) and 865000000 photons/seconds and 139000000 photons/seconds and 55200000 photons/seconds and the “IVIS imaging, bioluminescence” value (Qstat 10 mg/kg + IR 6 Gy, day 50 post Tx start) was 1010000000 photons/seconds and 2140000000 photons/seconds and 260000000 photons/seconds and 1180000000 photons/seconds and 4090000000 photons/seconds and 2810000000 photons/seconds and 808000000 photons/seconds and 15100000 photons/seconds and 286000000 photons/seconds. For the same compound, the “IVIS imaging, bioluminescence” value (Qstat 10 mg/kg + IR 6 Gy, day 57 post Tx start) was 6040000000 photons/seconds and 4070000000 photons/seconds and 1070000000 photons/seconds and 2530000000 photons/seconds and 1020000000 photons/seconds and 1870000000 photons/seconds and 1150000000 photons/seconds, the “IVIS imaging, bioluminescence” value (Qstat 10 mg/kg alone, day 0 post Tx start (baseline), PDX model) was 86400000 photons/seconds and 33100000 photons/seconds and 140000000 photons/seconds and 26400000 photons/seconds and 105000000 photons/seconds and 45000000 photons/seconds and 52600000 photons/seconds and 53600000 photons/seconds and 60100000 photons/seconds and 13600000 photons/seconds and the “IVIS imaging, bioluminescence” value (Qstat 10 mg/kg alone, day 8 post Tx start) was 42100000 photons/seconds and 58500000 photons/seconds and 585000000 photons/seconds and 200000000 photons/seconds and 458000000 photons/seconds and 884000000 photons/seconds and 49000000 photons/seconds and 19500000 photons/seconds and 581000000 photons/seconds and 107000000 photons/seconds. The “IVIS imaging, bioluminescence” value (Qstat 10 mg/kg alone, day 15 post Tx start) was 5290000 photons/seconds and 888000000 photons/seconds and 5530000 photons/seconds and 4270000 photons/seconds and 7590000 photons/seconds and 19400000 photons/seconds and the “IVIS imaging, bioluminescence” value (Qstat 10 mg/kg alone, day 29 post Tx start) was 1550000000 photons/seconds and 10600000000 photons/seconds and 15100000000 photons/seconds and 7070000000 photons/seconds and 3880000000 photons/seconds and 387000000 photons/seconds and 12600000000 photons/seconds and 413000000 photons/seconds and 4430000000 photons/seconds.
